Reference: publication PMC9582125, “Two triphosphate tunnel metalloenzymes from apple exhibit adenylyl cyclase activity” (Frontiers in Plant Science, 2022)

Target: T1, HpAC1 (Hippeastrum hybrid cultivar, UniProt E1AQY1)
T1 construct: gene AC1
T1 sequence (E1AQY1 1-206): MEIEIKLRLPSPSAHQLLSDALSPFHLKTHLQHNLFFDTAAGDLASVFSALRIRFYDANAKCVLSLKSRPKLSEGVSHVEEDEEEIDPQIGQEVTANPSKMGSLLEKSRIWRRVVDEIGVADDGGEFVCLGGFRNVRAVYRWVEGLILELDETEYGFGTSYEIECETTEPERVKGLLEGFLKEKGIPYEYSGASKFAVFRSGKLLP
Assay: malachite green phosphate release
Assay type: biochemical
Settings: divalent cation, pH 7.5, 30 °C; hydrolysis

## O=P(O)(O)OP(=O)(O)OP(=O)(O)O [PPPi]
  malachite green phosphate release: HpAC1 could hydrolyze both organic and inorganic triphosphates like MdTTM2
